According to patent publication US6825178B1, “Methods and products for treating pseudomonas infection” (The Brigham and Women's Hospital, Inc., priority 1996, dated 2004):
Marks after values point to notes of the source that are not given here.

Tested on: transformed human airway epithelial cells (CFT1-LCFSN line)
Test: Inhibition of internalization of P. aeruginosa strain 149 into CFT1-LCFSN cells (bacterial ingestion assay)
Type: cell-based
Conditions: strain 149, CFT1-LCFSN cells
Text: Cell lines. CFT1-LCFSN cells, carrying a retrovirally introduced chromosomal copy of the wild-type human CFTR gene were kindly provided by J. Olsen, J. Yankaskis and L. Johnson from The University of North Carolina, Chapel Hill, N.C.. The cell line parental to CFT1-LCFSN is designated CFT1; it is a line of human papilloma virus 18 E6/E7 transformed bronchial epithelial cells derived from a CF patient homozygous for ΔF508 CFTR. The CFT1-LCFSN cells have normal chloride ion conductance. CFT1-ΔF508 cells are derived from CFT1 cells and carry a cDNA introduced by a retrovirus vector that encodes the ΔF508 mutant form of CFTR. Cells were grown in supplemented F-12 medium as described in 5% CO2 at 37° C.
Bacterial strains. P. aeruginosa strains used include PAO1, a well-characterized laboratory strain, and strains 149 and 324, non-mucoid, LPS-smooth clinical isolates of P. aeruginosa from CF patients early in the course of infection. Fresh cultures of P. aeruginosa grown overnight at 37° C. on a tryptic soy agar plate were suspended in supplemented medium to prepare the bacterial inoculum. Approximately 10^6 cfu of the bacterial inoculum were added per well of 10^5, epithelial cells.
Reagents for inhibition of ingestion assays. Membranes were prepared from C127 cells as described by O'Riordan et al.. Membranes were suspended in 150 mM NaCl, 50 mM Tris, pH 7.5 and 1 mM EDTA and added at the indicated concentration to suspensions of P. aeruginosa strains prior to adding this mixture to CFT1-LCFSN cells to measure bacterial uptake. Membranes from CEM/VbI cells expressing P-glycoprotein and membranes from control CEM cells lacking P-glycoprotein were obtained from James Croop of Harvard Medical School. Purified (˜85%) recombinant CFTR was obtained from Genzyme Corp., and prepared as described. The protein was solubilized in 100 mM NaCl, 10 mM Tris, pH 8.0, 2 mM di-thio-threitol and 0.1% sodium dodecyl sulfate. Monoclonal antibodies raised to synthetic peptides corresponding to the first (MAb CF3) and fourth (MAb CF4) predicted extracellular domains of CFTR, as well as a MAb specific to a peptide representing the carboxy-terminal 14 amino acids of mature CFTR (MAb CF2) were provided by Dr. George Banting, University of Bristol, Bristol, UK [12]. Synthetic peptides were obtained from Chiron Mimetopes, San Diego, Calif. Peptide GRIIASYDPDNKEER (15 amino acids) (SEQ.ID.NO. 3) represents amino acids 103-117 of mature CFTR, peptide […] (31 amino acids) (SEQ.ID.NO. 4) represents amino acids 881-911 of mature CFTR. Peptides were made up as a stock solution in F-12 medium containing 1 μM/μl based on the purity reported by the manufacturer. Peptides were diluted in F-12 tissue culture medium prior to use in assays.
Bacterial ingestion assay. Cells were released from monolayers in tissue culture flasks by 5 min. of incubation with trypsin-versene mixture (BioWhitaker, Walkersville, Md.), washed, counted and seeded into 96-well tissue culture plates at 10^5 cells/well in supplemented F-12 medium and incubated at 37° C. in 5% CO2. Fresh cultures of P. aeruginosa grown overnight at 37° C. on a tryptic soy agar plate were suspended in supplemented F-12 medium to prepare the bacterial inoculum. Then 10^6 colony forming units (cfu) of the bacterial inoculum were added per well of 10^5 epithelial cells. Bacteria were allowed to invade the epithelial cells for 3 to 4 hours at 37° C., after which nonadherent bacteria were removed by washing. The remaining steps of the assay and the steps involved in the controls have previously been described. Three to 9 replicates were obtained per point, and analyzed using analysis of variance (ANOVA) and the Fisher PLSD statistic to determine pairwise differences. […]

| Sequence | Mean cfu of P. aeruginosa internalized (standard deviation) (0.001 nanomoles peptide) | Mean cfu of P. aeruginosa internalized (standard deviation) (0.01 nanomoles peptide) | Mean cfu of P. aeruginosa internalized (standard deviation) (0.1 nanomoles peptide) | Mean cfu of P. aeruginosa internalized (standard deviation) (1 nanomoles peptide) |
| --- | --- | --- | --- | --- |
| LWLLGNTPLQDKGNSTHSRNNSYAVIITSTS (listed as Homo Sapiens) [Fourth domain, reference compound] | 4.752 × 10^4 (5.9915 × 10^3) cfu | 4.86 × 10^4 (4.6463 × 10^3) cfu | 5.528 × 10^4 (6.0598 × 10^3) cfu | 5.735 × 10^4 (4.0009 × 10^3) cfu |
| GRIIASYDPDNKEER (listed as Homo Sapiens) [First domain] | 5.73 × 10^4 (4.006 × 10^3) cfu | 1.705 × 10^4 (2.1333 × 10^3)^a cfu | 7.0167 × 10^3 (8.542 × 10^2)^a cfu | 3.7833 × 10^3 (4.491 × 10^2)^a cfu |
